{"source": "patent US8809057B2", "about": "“Methods of evaluating gene expression levels” (Raytheon BBN Technologies Corp., priority 2012, dated 2014)", "type_in_all_cases": "cell-based", "key": {"[1]": {"tested_on": "Tre genetic element (rtTA)", "test": "Example 2 multiplex circuit: small molecule effector (dox) transfer curve, input reporter EYFP", "conditions": "Example 2, FIG. 10, normalized input reporter EYFP", "from_the_text": "The multiplex circuit to be characterized is shown in FIG. 9. he regulatory protein transcription unit and the input reporter protein transcription unit, which are co-expressed in this example, are under the control of the small molecule effector doxycycline (dox), which binds to the constitutively expressed protein rtTA to regulate transcription from the Tre genetic element. In this example, the effector transcription unit comprises a constitutive effector genetic element (CAG) and a coding sequence for an effector-regulated protein (rtTA), wherein the constitutive effector genetic element (CAG) controls expression of the effector-controlled protein (rtTA). In this example, the effector transcription unit further comprises coding sequence for the VP16-GAL4 activator which binds UAS-T1 in the output transcription unit. In the absence of dox, Tal1 is not expressed and the constitutively expressed VP16-GAL4 activator binds to UAS-T1, leading to expression of the mKate output reporter. The effector transcription unit contains a coding sequence for a 2A self-cleaving peptide allowing for expression of rtTA and VP16-GAL4 from the same construct. The test regulatory protein transcription unit and the input transcription unit are co-expressed from a genetic element responsive to a small molecule effector (Tre). […] The input reporter protein EYFP has a yellow fluorescence emission. […]"}, "[2]": {"tested_on": "Tre genetic element (rtTA)", "test": "Example 1 multiplex circuit: small molecule effector (dox) transfer curve, input reporter EBFP2 by FACS", "conditions": "Example 1, FIG. 7, normalized input reporter EBFP2, HEK 293 FT", "from_the_text": "Both the regulatory protein transcription unit and the input reporter protein transcription unit are under the control of the small molecule effector doxycycline (dox). In this example, the activity of the small molecule effector (dox) is mediated through an effector transcription unit. The effector transcription unit comprises a constitutive effector genetic element (pHef1a) and a coding sequence for an effector-regulated protein (rtTA), wherein the constitutive effector genetic element (pHef1a) controls expression of the effector-controlled protein (rtTA). […]\nThe input transcription unit comprises a genetic element responsive to a small molecule effector (Tre) and a coding sequence for the input reporter protein (EBFP2), wherein the genetic element responsive to the effector-regulated protein (Tre) controls expression of the input reporter protein (EBPF2). […] The input reporter protein EBFP2 has a blue fluorescence emission. […]\n(§1) The cells are then subjected to FACS analysis and the amounts of input, output and constitutive protein fluorescence is measured for each cell. […]\n(§2) While the colors for the input, output and constitutive protein fluorescence are selected to have as little overlap as possible, there is some inherent overlap between the different colors. […]"}, "Hef1a-LacO1Oid": {"tested_on": "Hef1a-LacO1Oid", "test": "Example 1 multiplex circuit: regulatory protein (LacI) transfer curve, output reporter EYFP by FACS", "conditions": "Example 1, FIG. 8, normalized output reporter EYFP", "from_the_text": "The regulatory protein transcription unit comprises a genetic element responsive to a small molecule effector (Tre) and a coding sequence for the regulatory protein (LacI), wherein the genetic element responsive to the genetic element responsive to the effector-regulated protein (Tre) controls expression of the regulatory protein (LacI). In the present case, the genetic element responsive to the effector-regulated protein (Tre) is responsive to the effector-controlled protein (rtTA).\nThe output transcription unit comprising a genetic element responsive to the regulatory protein (Hef1a-LacO1Oid) and a coding sequence for the output reporter protein (EYFP), wherein the genetic element responsive to the regulatory protein (Hef1a-LacO1Oid) controls expression of the output reporter protein (EYFP). The output reporter protein EYFP has a yellow fluorescence emission. […]\nas §1, §2"}}, "data": [{"molecule": "C[C@H]1c2cccc(O)c2C(=O)C2=C(O)[C@]3(O)C(=O)C(C(N)=O)=C(O)[C@@H](N(C)C)[C@@H]3[C@@H](O)[C@@H]21", "note": "[dox, doxycycline]", "values": [{"measurement": "dox level at which the level of IFP saturates at a high value", "setting": "[1]", "result": "more than 200 nM"}, {"measurement": "dox level at which the level of IFP stays low regardless of the plasmid count", "setting": "[1]", "result": "less than or equal to 3 nM"}, {"measurement": "dox level at which the level of IFP saturates at a high value", "setting": "[2]", "result": "more than 200 nM"}, {"measurement": "dox level at which the level of IFP stays low regardless of the plasmid count", "setting": "[2]", "result": "less than or equal to 3 nM"}]}, {"molecule": "LacI: test regulatory protein (Lac repressor) binding Hef1a-LacO1Oid (protein, UniProt P03023 1-360, looked up) Lactose operon repressor: MKPVTLYDVAEYAGVSYQTVSRVVNQASHVSAKTREKVEAAMAELNYIPNRVAQQLAGKQSLLIGVATSSLALHAPSQIVAAIKSRADQLGASVVVSMVERSGVEACKAAVHNLLAQRVSGLIINYPLDDQDAIAVEAACTNVPALFLDVSDQTPINSIIFSHEDGTRLGVEHLVALGHQQIALLAGPLSSVSARLRLAGWHKYLTRNQIQPIAEREGDWSAMSGFQQTMQMLNEGIVPTAMLVANDQMALGAMRAITESGLRVGADISVVGYDDTEDSSCYIPPLTTIKQDFRLLGQTSVDRLLQLSQGQAVKGNQLLPVSLVKRKTTLAPNTQTASPRALADSLMQLARQVSRLESGQ", "values": [{"measurement": "repression of the output of Hef1a-LacO1Oid", "setting": "Hef1a-LacO1Oid", "result": 100, "unit": "fold"}]}]}
